Test results: patent US20230190924A1, “ANTIGEN OF ALLERGY AND EPITOPE THEREOF” (HOYU CO., LTD., priority 2017, published 2023)

What follows are substances tested on IgE antibodies from patients (assay: Epitope mapping (2) overlapping (10-amino-acid peptides) and (3) alanine scanning on peptide arrays). Conditions: overlapping peptides with flanking sequence.
Type: binding, human
Method: On the basis of the sequences (SEQ ID NOs: 272-295 for vitellogenin-2 precursor, SEQ ID NOs: 296-303 for vitellogenin-3, SEQ ID NOs: 304-311 for apolipoprotein B precursor, and SEQ ID NOs: 312-318 for vitellogenin-1 or lipovitellin-1) of the peptides bound to an IgE antibody in serum in a patient-specific manner as described above in (A), a library of overlapping peptide fragments (length: 10 amino acids) was prepared using the sequences of the peptides and sequences in which sequences were added so as to flank each peptide in the amino acid sequences of allergen components (amino acid sequences of SEQ ID NO: 59, 106 or 262 for vitellogenin-2 precursor, SEQ ID NO: 2, 13 or 47 for vitellogenin-3, SEQ ID NO: 152, 237 or 251 for apolipoprotein B, and SEQ ID NO: 18 for vitellogenin-1 or lipovitellin-1) comprising the sequences of the peptide to carry out epitope mapping.
The peptides to be synthesized were shifted by one amino acid.
The library was prepared by the same procedure as described above in (A), and the presence or absence of binding of an IgE antibody present in the serum of a patient and a non-egg-allergic subject to each peptide fragment was measured by the same technique as described above. Amino acids at positions where the binding activity against IgE antibodies from patients were lost or decreased in the peptides shifted by one amino acid while binding activity against IgE antibodies from non-egg-allergic subjects arose were confirmed as amino acids adversely affecting the specificity of binding to IgE antibodies.
Chemiluminescence intensity in images obtained by measurement was converted into a numeric value in the same manner as in (A) using ImageQuant TL (GE Healthcare). Numeric values determined from images obtained as a result of using only anti-human IgE antibody-HRP antibody without carrying out the procedures (2) and (3) described above in the subsection titled (3) Spotting of cellulose-bound peptide solution were […] numeric values determined from images obtained from results about the serum of 6 patients. It was determined that a peptide having the resulting value larger than 0 had no binding activity against IgE antibodies when having less than 20% of values obtained using the sequences (amino acid sequences of SEQ ID NO: 59, 106 or 262 for vitellogenin-2, SEQ ID NO: 2, 13 or 47 for vitellogenin-3, SEQ ID NO: 152, 237 or 251 for apolipoprotein B, and SEQ ID NO: 18 for vitellogenin-1 or lipovitellin-1) serving as the basis of overlapping, had binding activity, albeit poor, against IgE antibodies when having 20% or more and less than 50% thereof, had binding activity, albeit somewhat poor, against IgE antibodies when having 50% or more and less than 70% thereof, had almost equivalent binding activity against IgE antibodies when having 70% or more and less than 90% thereof, and had equivalent or good binding activity against IgE antibodies and thus had remaining binding activity against IgE antibodies when having 90% or more thereof.
From the amino acid sequences identified above in (A), a library of peptide fragments in which N-terminal amino acids were substituted one by one by alanine according to a technique called alanine scanning (Non Patent Literature 1) was prepared by the same technique as described above. The presence or absence of binding of an IgE antibody present in the serum of a patient and a non-egg-allergic subject to each peptide fragment was measured by the same technique as described above. Amino acids at positions where the binding activity against IgE antibodies from patients were lost or decreased by the substitution by alanine while binding activity against IgE antibodies from non-egg-allergic subjects arose were confirmed as amino acids important for exertion of original antigenicity, or amino acids influencing exertion of original antigenicity.

Row | Substance | binding to IgE antibodies from patients, sequence comprising a region carboxy-terminally adjacent to the epitope | binding to IgE antibodies from patients, sequence comprising a region amino-terminally adjacent to the epitope
1 | SEQ ID NO: 375: sequence comprising a region carboxy-terminally adjacent to epitope 7 (SAGSVADLVE; epitope) | binding to IgE antibodies from patients | –
2 | SEQ ID NO: 452: sequence comprising a region amino-terminally adjacent to epitope 17 (TNLTDSSKWK; epitope) | – | binding to IgE antibodies from patients
3 | SEQ ID NO: 584: sequence comprising a region carboxy-terminally adjacent to epitope 36 (EPTLEALFG; epitope) | binding to IgE antibodies from patients | –
4 | SEQ ID NO: 576: sequence comprising a region amino-terminally adjacent to epitope 35 (YQVSKRVS; epitope) | – | binding to IgE antibodies from patients
5 | SEQ ID NO: 657: sequence comprising a region amino-terminally adjacent to epitope 46 (VPDIMKMSFD; epitope) | – | binding to IgE antibodies from patients
6 | SEQ ID NO: 495: sequence comprising a region carboxy-terminally adjacent to epitope 21 (YFDGKTITIQ; epitope) | binding to IgE antibodies from patients | –
7 | SEQ ID NO: 523: sequence comprising a region carboxy-terminally adjacent to epitope 23 (FVKLEKTVQL; epitope) | binding to IgE antibodies from patients | –
8 | SEQ ID NO: 517: sequence comprising a region amino-terminally adjacent to epitope 23 (APCRGACKLH; epitope) | – | binding to IgE antibodies from patients
9 | SEQ ID NO: 384: sequence comprising a region amino-terminally adjacent to epitope 8 (IKELGKALQG; epitope) | – | binding to IgE antibodies from patients
10 | SEQ ID NO: 426: sequence comprising a region carboxy-terminally adjacent to epitope 11 (LKNLKIETNP; epitope) | binding to IgE antibodies from patients | –

Now from value to substance:

Row | binding to IgE antibodies from patients, sequence comprising a region carboxy-terminally adjacent to the epitope | binding to IgE antibodies from patients, sequence comprising a region amino-terminally adjacent to the epitope | Substance
11 | binding to IgE antibodies from patients | – | SEQ ID NO: 351: sequence comprising a region carboxy-terminally adjacent to epitope 4 (PKTVQGYL; epitope)
12 | – | binding to IgE antibodies from patients | SEQ ID NO: 672: sequence comprising a region amino-terminally adjacent to epitope 47 (MSFKPVYSDV; epitope)
13 | – | binding to IgE antibodies from patients | SEQ ID NO: 644: sequence comprising a region amino-terminally adjacent to epitope 42 (QELLFGRL; epitope)
14 | binding to IgE antibodies from patients | – | SEQ ID NO: 393: sequence comprising a region carboxy-terminally adjacent to epitope 8 (LPTETPLV; epitope)
15 | binding to IgE antibodies from patients | – | SEQ ID NO: 401: sequence comprising a region carboxy-terminally adjacent to epitope 8 (LPTETPLVS; epitope)

Same assay, conditions: procedures (B) overlapping and (C) alanine scanning

Row | Substance | region within the epitope important for binding to IgE antibodies from patients
16 | SEQ ID NO: 602: region in epitope 37 (TPGAKVAV; epitope) | important for binding
17 | SEQ ID NO: 573: region in epitope 34 (KDEP; epitope) | important for binding
18 | SEQ ID NO: 347: region in epitope 4 (LKKIA; epitope) | important for binding
19 | SEQ ID NO: 461: region in epitope 19 (KIKTF; epitope) | important for binding
20 | SEQ ID NO: 369: region in epitope 6 (TMFPSAIISK; epitope) | important for binding
21 | SEQ ID NO: 664: region in epitope 46 (MSFDSDS; epitope) | important for binding
22 | SEQ ID NO: 339: region in epitope 4 (ALKKIAWKDP; epitope) | important for binding
23 | SEQ ID NO: 446: region in epitope 16 (PKRKLPGDRA; epitope) | important for binding
24 | SEQ ID NO: 594: region in epitope 37 (IVTPGAKVAV; epitope) | important for binding
25 | SEQ ID NO: 541: region in epitope 27 (ICGKYDAEKK; epitope) | important for binding
26 | SEQ ID NO: 587: region in epitope 37 (SGIV; epitope) | important for binding
27 | SEQ ID NO: 388: region in epitope 8 (KALQGWKEL; epitope) | important for binding
28 | SEQ ID NO: 520: region in epitope 23 (ACKLHRSFVK; epitope) | important for binding

The remaining lines, values ahead:

Row | region within the epitope important for binding to IgE antibodies from patients | Substance
29 | important for binding | SEQ ID NO: 430: region in epitope 14 (PSKKGNTVLA; epitope)
30 | important for binding | SEQ ID NO: 533: region in epitope 27 (ICGKYDAE; epitope)
31 | important for binding | SEQ ID NO: 571: region in epitope 34 (KDEPLNV; epitope)
32 | important for binding | SEQ ID NO: 425: region in epitope 11 (DVKLKNLKI; epitope)
33 | important for binding | SEQ ID NO: 627: region in epitope 41 (SGYLKMFG; epitope)
34 | important for binding | SEQ ID NO: 592: region in epitope 37 (SGIVTPGAK; epitope)
35 | important for binding | SEQ ID NO: 630: region in epitope 41 (YLKMFGQELL; epitope)
36 | important for binding | SEQ ID NO: 436: region in epitope 15 (SSSNSKSSSS; epitope)
37 | important for binding | SEQ ID NO: 327: region in epitope 2 (QMTIKKSQNV; epitope)
38 | important for binding | SEQ ID NO: 544: region in epitope 27 (YDAEKK; epitope)
39 | important for binding | SEQ ID NO: 663: region in epitope 46 (PDIMKMSFDS; epitope)
40 | important for binding | SEQ ID NO: 680: region in epitope 47 (SFKPVY; epitope)
